Source: ChEMBL document CHEMBL4811237, “Phenanthridine Derivative Host Heat Shock Cognate 70 Down-Regulators as Porcine Epidemic Diarrhea Virus Inhibitors” (J Nat Prod, 2021)
pEC50: −log10 of the molar value. One block for each compound: values may come before it. Activity calls are given as the source filed them. No cut-off for these calls is given here.

Tests used:
[1] = tested on: Porcine epidemic diarrhea virus; test: Antiviral activity against PEDV (NK-2) inoculated in piglets assessed as reduction in multifocal diffusion of villous atrophy at 50 mg/kg, po administered every 24 hrs for 72 hrs by HE staining based microscopic analysis; assay type: functional, organism-based
MARC145 = test: Suppression of Hsc70 expression in African green monkey Marc145 cells assessed as Hsc70 mRNA destabilization by measuring half life at 20 uM (reference value: 6.51 hrs); assay type: functional, cell-based; settings: Chlorocebus aethiops
[2] = Selectivity index, ratio of CC50 for cytotoxicity against African green monkey MARC145 cells to EC50 for antiviral activity against PEDV 85-7; assay type: toxicity, cell-based; settings: read-out: Ratio CC50/EC50
[3] = tested on: Porcine epidemic diarrhea virus; test: Antiviral activity against PEDV 85-7 infected in Marc145 cells assessed as down regulation of Hsc70 mRNA expression at 10 uM after 24 hrs by qPCR analysis; assay type: functional, organism-based
[4] = tested on: Porcine epidemic diarrhea virus; test: Antiviral activity against PEDV 85-7 infected in Marc145 cells assessed as reduction in viral virion at 20 uM by plaque assay; assay type: functional, organism-based
[5] = tested on: Porcine epidemic diarrhea virus; test: Antiviral activity against PEDV 85-7 infected in Marc145 cells assessed as reduction in PEDV-N protein level at 10 uM by Western blotting analysis; assay type: functional, organism-based
[6] = tested on: Porcine epidemic diarrhea virus; test: Antiviral activity against PEDV (NK-2) inoculated in piglets assessed as reduction in mortality at 50 mg/kg, po administered every 24 hrs for 72 hrs; assay type: functional, organism-based
[7] = tested on: Porcine epidemic diarrhea virus; test: Antiviral activity against PEDV 85-7 infected in Marc145 cells expressing pEGFP-N1/Hsc70 protein assessed as decrease in PEDV-N-protein level at 20 uM after 24 hrs […]; assay type: functional
[8] = tested on: Porcine epidemic diarrhea virus; test: Antiviral activity against PEDV 85-7 infected in Marc145 cells assessed as inhibition of viral transcription after 24 hrs by qPCR analysis; assay type: functional, organism-based; settings: 85-7, MARC145, 24 h
[9] = tested on: Porcine epidemic diarrhea virus; test: Antiviral activity against PEDV (NK-2) inoculated in piglets assessed as reduction in viral replication in intestine at 50 mg/kg, po administered every 24 hrs for 72 hrs by immunofluorescence assay; assay type: functional, organism-based
[10] = tested on: Porcine epidemic diarrhea virus; test: Antiviral activity against PEDV 85-7 infected in Marc145 cells assessed as reduction in PDEV protein level at 10 uM after 24 hrs by indirect immunofluorescence assay; assay type: functional, organism-based
[11] = tested on: Porcine epidemic diarrhea virus; test: Antiviral activity against PEDV 85-7 infected in Marc145 cells expressing pEGFP-N1/Hsc70 protein assessed as decrease in viral RNA level at 20 uM after 24 hrs by qPCR analysis; assay type: functional
[12] = tested on: Porcine epidemic diarrhea virus; test: Antiviral activity against PEDV (NK-2) inoculated in piglets assessed as reduction in fusion of numerous villi at 50 mg/kg, po administered every 24 hrs for 72 hrs by HE staining based microscopic analysis; assay type: functional, organism-based
[13] = Cytotoxicity against African green monkey MARC145 cells by CCK8 assay; assay type: cell-based; settings: chlorocebus aethiops
[14] = tested on: Porcine epidemic diarrhea virus; test: Antiviral activity against PEDV (NK-2) inoculated in piglets assessed as reduction in swelling sloughing and attenuation of villi at 50 mg/kg, po administered every 24 hrs for 72 hrs by HE staining based microscopic analysis; assay type: functional, organism-based
[15] = tested on: Porcine epidemic diarrhea virus; test: Antiviral activity against PEDV 85-7 infected in Marc145 cells assessed as suppression of viral assembly; assay type: functional, organism-based
[16] = tested on: Porcine epidemic diarrhea virus; test: Antiviral activity against PEDV 85-7 infected in Marc145 cells assessed as down regulation of Hsc70 protein expression after 24 hrs by Western blotting analysis; assay type: functional, organism-based; settings: dose 0.1-10 µM
[17] = tested on: Porcine epidemic diarrhea virus; test: Antiviral activity against PEDV 85-7 infected in Marc145 cells assessed as reduction in PEDV-N protein level by Western blotting analysis; assay type: functional, organism-based; settings: dose 0.1-10 µM
[18] = tested on: Porcine epidemic diarrhea virus; test: Antiviral activity against PEDV 85-7 infected in Marc145 cells assessed as inhibition of viral replication by measuring reduction in mRNA level at 10 uM after 24 hrs by qPCR analysis; assay type: functional; design: scale not given: the % may be the effect or the level left

pEC50 [8]: 6.14
Structure (SMILES): CCc1cccc2c1N(C)Cc1cc(OCc3cc(C)n(C)n3)c(OCc3cc(C)n(C)n3)cc1-2
Activity [1]: Active | T1/2 (MARC145): 1.84 h | selectivity ratio [2]: > 134 | Activity [3]: Active | Activity [4]: Active | Activity [5]: Active | Activity [6]: Active | fold change (FC) [7]: 20.5 | Activity [9]: Active | Activity [10]: Active | fold change (FC) [11]: 29.3 | Activity [12]: Active | CC50 [13]: > 100 µM | Activity [14]: Active | Activity [15]: Active | Activity [16]: Dose-Dependent Effect | Activity [17]: Dose-Dependent Effect | Activity [18]: 70%

pEC50 [8]: 5.49
Structure (SMILES): CCc1cccc2c1N(C)Cc1cc(OC(C)=O)c(OC(C)=O)cc1-2
T1/2 (MARC145): 2.61 h | selectivity ratio [2]: > 30 | Activity [3]: Active | Activity [5]: Active | CC50 [13]: > 100 µM | Activity [18]: 70%

pEC50 [8]: 5.72
Structure (SMILES): CCc1cccc2c1N(C)Cc1cc(OC)c(OC)cc1-2
Activity [1]: Active | T1/2 (MARC145): 2.31 h | selectivity ratio [2]: > 53 | Activity [3]: Active | Activity [4]: Active | Activity [5]: Active | Activity [6]: Active | Activity [9]: Active | Activity [10]: Active | Activity [12]: Active | CC50 [13]: > 100 µM | Activity [14]: Active | Activity [18]: 70%
